This experiment has as its system ovarian cancer cell lines (OV-CAR). As to the kind of experiment: Western blot of DSG2 in OV-CAR cell supernatants after cisplatin treatment. The experiment is classed as cell-based. The protocol:
FIGS. 5A, 5B and 5C (collectively FIGS. 5A-5C) show the effect of DSG2 expression in response to cisplatin.
Western Blot. Mini-PROTEAN precast gels (BIO-RAD, Hercules, CA) with 4-15% gradient polyacrylamide are used. A total of 1 μg protein mixed with 2× loading buffer (10 mM Tris-HCl, pH 6.8, 200 mM DTT, 4% SDS, 20% glycerol, 0.2% bromophenol blue) is loaded per lane. Samples are either boiled (B) for 5 min or loaded unboiled (UB). The following running buffer is used: 25 mM Tris, pH 8.3, 0.192 M glycine, 0.1% SDS. After electrophoresis, proteins are transferred to nitrocellulose and incubated with the corresponding antibodies. For detection of DSG2 binding, filters are incubated with recombinant human DSG2 protein and anti-DSG2 antibody 6D8 as described (Wang et al. Nat Med. 2011; 17(1):96-104). Other Western blots use a primary mouse monoclonal antibody followed by an anti-mouse IgG HRP conjugate. Selected Western blots are scanned and quantified using the ImageJ 1.32 software (National Institutes of Health, Bethesda, MD).
In this Example, a potential mode of chemoresistance was investigated, DSG2 protein levels were determined in cancer cells after treatment with cisplatin, a commonly used platinum-based therapeutic used as first-line treatment of ovarian cancer and its metastases.
Cell supernatants from ovarian cancer cell lines (OV-CAR) were first interrogated with monoclonal and polyclonal anti-DSG2 antibodies to confirm specificity of the antibodies. […] Within 2 days of cisplatin treatment, the presence of cleaved DSG2, a product of DSG2 shedding, was detected in cell supernatant (FIGS. 5A and 5B). Quantitative analysis of the blot intensity indicated DSG2 peaking at 2 days after cisplatin treatment.
(A western blot detects proteins with antibodies after separation by electrophoresis.)

One molecule from US12669505B2, “Detection of desmoglein-2 in cancers of epithelial origin” (HDT Bio Corp., priority 2019, dated 2026) can be followed below.

On to `N.N.[Cl][Pt][Cl]` [cisplatin], for which, where the note is “OV-CAR cells, after cisplatin treatment, ImageJ, day 0 as control”, the “time of DSG2 peak by quantitative analysis of blot intensity” value was 2 days. Moreover, the “time until cleaved DSG2 (product of DSG2 shedding) was detected in cell supernatant” value (OV-CAR cells, after cisplatin treatment, Western blot) was no more than 2 days. The “DSG2 response of ovarian cancer cells to treatment” value (cisplatin treatment) is “upregulated and shed in increased amounts”.
